# Source: paper PMC5306082, “Physiologically based kinetic modeling of the bioactivation of myristicin” (Archives of Toxicology, 2016)
# Where two headings read alike, the source gives them in different places.
# Experiments:
# [1] = Sulfonation of 1′-hydroxymyristicin, male rat liver S9; type: in vitro ADME
# Protocol: (§1) The formation of 1′-sulfoxymyristicin was determined using incubations containing male rat liver Sprague–Dawley or pooled gender human liver S9 proteins, PAPS as a cofactor, and GSH, which acts as a scavenger of the reactive carbocation formed due to the unstable nature of the 1′-sulfoxy metabolite in an aqueous environment (van den Berg et al. [2012]; Martati et al. [2011]; Al-Subeihi et al. [2011]). Incubation mixtures containing (final concentrations) 10 mM of GSH, 0.2 mM of PAPS, and 3 mg/ml of S9 proteins in 0.1 M potassium phosphate (pH 8.2) were pre-incubated for 1 min at 37 °C. After the pre-incubation, 1′-hydroxymyristicin dissolved in DMSO was added in final concentrations ranging between 10 and 6000 μM while keeping the final content of DMSO at 1 % (v/v). The reaction was terminated after 360 min of incubation by adding 25 μl (0.25 times the incubation volume) of ice-cold ACN. The formation of the GSH conjugate of 1′-sulfoxymyristicin was linear with time and S9 protein concentrations under the experimental conditions used. Blank incubations were performed in the absence of PAPS. Incubations were performed in triplicate. All samples were centrifuged for 5 min at 16,000×g, and the supernatant was stored at −20 °C until ultra-performance liquid chromatography (UPLC) analysis.
# (§2) Quantification of 1′-sulfoxymyristicin was done using UPLC analysis as described for the estimation of 1′-sulfoxysafrole (Martati et al. [2011]). […] The gradient for analysis of the metabolite consisted of a mixture of ACN and ultrapure water containing 0.1 % (v/v) TFA. The flow rate was 0.6 ml/min, starting at 0 % ACN and increasing the percentage of ACN to 20 % over 0.2 min, followed by an increase to 30 % ACN over 4.3 min, then increasing to 100 % over 0.3 min, and keeping it at 100 % for 0.2 min, and finally decreasing to 0 % over 0.2 min and keeping it at 0 % for 0.8 min. Separation and purification of the GSH adduct of 1′-sulfoxymyristicin was performed by collecting the peak of the metabolite from the UPLC column. […]
# [2] = Sulfonation of 1′-hydroxymyristicin, human liver S9; type: in vitro ADME
# Protocol: as §1, §2
# [3] = system: freshly isolated rat hepatocytes in primary culture; conditions: 10^−6 to 10^−3 M; ref Howes et al. [1990]; cited from earlier work
# Mouse liver CD-1 = conditions: cited from earlier work; for pmol Adduct/mg DNA: female, livers 24 h after treatment
# rats or mice = conditions: chronic oral exposure to high doses, or male CD-1 mice preweaning; ref Borchert et al. [1973]; Drinkwater et al. [1976]; National Toxicology [2000]; cited from earlier work
# experimental animals = conditions: tumor formation; ref van den Berg et al. [2011]; cited from earlier work
# DNA = conditions: ref Zhou et al. [2007a]; Kobets et al. [2016]; Phillips et al. [1984]; Randerath et al. [1984]; cited from earlier work
# New born mice B6C3F1 = conditions: male, injections on days 1, 8, 15, 22 after birth, ref Phillips et al. (1984), cited from earlier work
# [4] = Margin of exposure (MOE) risk assessment; conditions: BMDL10 of safrole
# Source text: The margin-of-exposure (MOE) concept was applied to assess the possible risks for human health resulting from the daily exposure to myristicin (JECFA [2005]; EFSA [2005]; Barlow et al. [2006]; O’Brien et al. [2006]). The MOE is a dimensionless ratio based on a reference point representing a dose causing a low but measurable cancer incidence in experimental animals (e.g., a BMDL10), which is divided by the estimated daily intake in humans (EFSA [2005]). […] The estimated daily intake of safrole from spice and spice oil in the USA amounts to 0.001 mg/kg bw per day (WHO [2009]).
# [5] = system: Cultured human HepG2 cells; conditions: harvested after 24 h, ref Zhou et al. (2007a), cited from earlier work
# [6] = ref EFSA [2012]; Zhou et al. [2007b]; cited from earlier work
# [7] = uptake from GI tract, assumed from fast and complete absorption of safrole; ref Punt et al. [2008]; cited from earlier work
# male B6C3F1 mice = conditions: total dose 3.75 or 4.75 µmol injected over 22 days, 12 or 18 months; ref Miller et al. [1983]; cited from earlier work
# [8] = Metabolism of myristicin by human small intestine, lung, kidney microsomes; type: in vitro ADME; conditions: 1000 μM myristicin, 1 mg/mL microsomal protein, NADPH, 30 min
# Protocol: (§3) First, it was determined which organs are involved in the biotransformation of myristicin in rat and human. For this purpose, liver, kidney, lung, and small intestine microsomes from male Sprague–Dawley rat and pooled gender human were used. Incubations were performed by adding myristicin to incubation mixtures containing 1 mg/mL of the microsomal protein preparations and 3 mM NADPH in 0.2 M Tris–HCl (pH 7.4). After 1 min of pre-incubation at 37 °C, myristicin (final concentration, 1000 μM) was added from a 100 times concentrated stock solution in DMSO so that the final DMSO content was 1 % (v/v). Incubations were carried out for 30 min after which the reactions were terminated by adding 25 µl (0.25 times the incubation volume) of ice-cold ACN. Samples were centrifuged for 5 min at 13,000×g, and the supernatant was stored at −20 °C until UPLC analysis. As metabolism of myristicin was observed only in incubations with liver microsomes for male rats and pooled gender human, the determination of kinetic constants for the formation of microsomal metabolites was performed only for the liver fractions. Incubations to determine kinetic constants were performed following the conditions described above using final concentrations of myristicin from 25 to 1000 μM for rat and human liver. In all incubations, the final concentration of DMSO, in which myristicin was dissolved, was kept at 1 % (v/v). […]
# [9] = Metabolism of myristicin by rat small intestine, lung, kidney microsomes; type: in vitro ADME; conditions: 1000 μM myristicin, 1 mg/mL microsomal protein, NADPH, 30 min
# Protocol: as §3
# pregnant ICR mice = conditions: single dose of 6 mg myristicin by gastric intubation; ref Randerath et al. [1993]; cited from earlier work
# [10] = Microsomal conversion of myristicin, male rat liver microsomes; type: in vitro ADME
# Protocol: (§4) First, it was determined which organs are involved in the biotransformation of myristicin in rat and human. For this purpose, liver, kidney, lung, and small intestine microsomes from male Sprague–Dawley rat and pooled gender human were used. Incubations were performed by adding myristicin to incubation mixtures containing 1 mg/mL of the microsomal protein preparations and 3 mM NADPH in 0.2 M Tris–HCl (pH 7.4). After 1 min of pre-incubation at 37 °C, myristicin (final concentration, 1000 μM) was added from a 100 times concentrated stock solution in DMSO so that the final DMSO content was 1 % (v/v). Incubations were carried out for 30 min after which the reactions were terminated by adding 25 µl (0.25 times the incubation volume) of ice-cold ACN. Samples were centrifuged for 5 min at 13,000×g, and the supernatant was stored at −20 °C until UPLC analysis. As metabolism of myristicin was observed only in incubations with liver microsomes for male rats and pooled gender human, the determination of kinetic constants for the formation of microsomal metabolites was performed only for the liver fractions. Incubations to determine kinetic constants were performed following the conditions described above using final concentrations of myristicin from 25 to 1000 μM for rat and human liver. In all incubations, the final concentration of DMSO, in which myristicin was dissolved, was kept at 1 % (v/v). The formation of different microsomal metabolites was linear with time and microsomal protein concentration under the conditions described. Blank incubations were performed in the absence of the cofactor NADPH. All incubations were performed in triplicate.
# (§5) Secondary metabolism of the relevant 1′-hydroxy metabolite of myristicin was taken into account by determining the kinetic constants for its conversion in (a) glucuronidation, (b) sulfation, and (c) oxidation, again under conditions that allowed adequate definition of kinetic constants and with <10 % substrate conversion. Incubation samples were subjected to UPLC analysis that was performed as described previously (Punt et al. [2008]). Identification was achieved by comparing the UV spectra of the formed metabolites to the spectra of the synthesized 1′-hydroxymyristicin and 1′-oxomyristicin reference standards. Quantification of all formed metabolites was done by comparing the peak areas to those of calibration curves of the corresponding reference compounds, determined using UPLC with photodiode array detection (UPLC-PDA). The UPLC system was composed of a Waters (Waters, Milford, MA) Acquity solvent manager, sample manager, and photodiode array detector, equipped with Water Acquity UPLC BEH C18 column.
# (§6) The gradient for analysis of microsomal metabolites was performed with 100 % ACN and ultrapure water containing 0.1 % (v/v) TFA. The flow rate was 0.6 ml/min. The gradient started at 10 % ACN, increased to 50 % ACN over 4 min, increased to 80 % over 0.5 min, followed by decrease to 10 % ACN over 0.5 min, and finally kept at 10 % for 1 min.
# [11] = Microsomal conversion of myristicin, human liver microsomes; type: in vitro ADME
# Protocol: as §4, §5, §6
# rat urine = system: rat urine; parameters: method as in Beyer et al. [2006]; conditions: single oral dose 100 mg/kg bw myristicin, urine over 24 h; ref Beyer et al. [2006]; cited from earlier work
# [12] = S9 protein yield 143 mg/g liver
# [13] = 80 mg/kg bw i.p., ref Randerath et al. (1984)
# [14] = 400 mg/kg bw i.p., ref Randerath et al. (1984)
# [15] = formation of the metabolite from myristicin, NADPH, mean of three ± SD
# [16] = formation of the metabolite from myristicin, Vmax/Km × 1000
# [17] = from myristicin, scaled Vmax/Km
smiles,measurement,setting,value
"C=CC(OS(=O)(=O)O)c1cc(OC)c2c(c1)OCO2 (stereo not shown) [1′-Sulfoxymyristicin, 1′-sulfoxymyristicin]","k, first-order rate constant for product formation","[1]; S9, PAPS, GSH trapping",17.6 × 10^−6 ml/min/mg protein
same,k Scaled,[1]; [12],0.15 ml/hr/g tissue
same,"k, first-order rate constant for product formation","[2]; S9, PAPS, GSH trapping",16.3 × 10^−6 ml/min/mg protein
same,k Scaled,[2]; [12],0.14 ml/hr/g tissue
"C=CCc1ccc2c(c1)OCO2 [Safrole, safrole]",cytotoxicity,[3],cytotoxicity
same,unscheduled DNA synthesis (UDS),[3],induced unscheduled DNA synthesis (UDS)
same,pmol Adduct/mg DNA,Mouse liver CD-1; [13],45.9 pmol Adduct/mg DNA
same,pmol Adduct/mg DNA,Mouse liver CD-1; [14],203.4 pmol Adduct/mg DNA
same,DNA adduct after 140 days (persistence),"Mouse liver CD-1; 400 mg/kg bw safrole, liver 140 days after treatment, ref Randerath et al. (1984)","After admin. of dose 400 mg/kg bw safrole, livers were taken after 24 h, 28, 58, 98, and 140 days after each treatment, after 140 days adduct was 21 pmol/mg DNA"
same,"DNA adduct formation in the liver, times higher for safrole than myristicin","Mouse liver CD-1; mice, i.p. injection, ref Randerath et al. [1984]",2.7 times
same,induction of hepatic tumors,rats or mice,induce hepatic tumors
same,BMDL10,experimental animals,1.9–5.1 mg/kg bw per day
same,"DNA adduct formation, result",DNA,positive results
same,pmol Adduct/mg DNA,New born mice B6C3F1; 30.8 mg/kg bw i.p.,17.5 pmol Adduct/mg DNA
same,MOE,[4]; estimated daily intake of safrole 0.001 mg/kg bw per day from spice and spice oil in the USA,1900–5100
same,pmol Adduct/mg DNA,[5]; 150 uM,0.083 pmol Adduct/mg DNA
same,pmol Adduct/mg DNA,[5]; 450 uM,0.102 pmol Adduct/mg DNA
"C=CCc1cc(OC)c2c(c1)OCO2 [Myristicin, 1-allyl-5-methoxy-3,4 methylene-dioxybenzene]",in vitro genotoxicity,[6],mutagenic
same,cytotoxicity,[3],showed cytotoxicity
same,absorption rate constant (ka),[7],1.0 h⁻¹
same,pmol Adduct/mg DNA,Mouse liver CD-1; [13],16.8 pmol Adduct/mg DNA
same,pmol Adduct/mg DNA,Mouse liver CD-1; [14],49.5 pmol Adduct/mg DNA
same,activity for the initiation of hepatic tumors,male B6C3F1 mice,no detectable activity
same,"metabolism of myristicin in small intestine, lung, or kidney microsomes",[8],no detectable metabolism
same,"DNA adduct formation, result",DNA,positive results
same,pmol Adduct/mg DNA,New born mice B6C3F1; 36.5 mg/kg bw i.p.,7.8 pmol Adduct/mg DNA
same,MOE,[4]; estimated daily intake of myristicin 0.0019 mg/kg bw per day from herbs and spices,1000–2684
same,"metabolism of myristicin in small intestine, lung, or kidney microsomes",[9],no detectable metabolism
same,level of myristicin adducts in fetal liver,pregnant ICR mice,63 % of the total adducts
same,level of myristicin adducts in maternal liver,pregnant ICR mice,68 % of the total adducts
same,pmol Adduct/mg DNA,[5]; 50 uM,0.017 pmol Adduct/mg DNA
same,pmol Adduct/mg DNA,[5]; 150 uM,0.049 pmol Adduct/mg DNA
same,pmol Adduct/mg DNA,[5]; 450 uM,0.165 pmol Adduct/mg DNA
"C=CCc1cc(O)c(O)c(OC)c1 [5-Allyl-2,3-dihydroxyanisole, 5-allyl-2,3-dihydroxyanisole]",Vmax,[10]; [15],1.3 ± 0.23 nmol min^−1 (mg microsomal or S9 protein)^−1
same,In vitro catalytic efficiency,[10]; [16],39.394 μl min^−1 (mg microsomal or S9 protein)^−1
same,"Scaled Vmax, in vivo","[10]; from myristicin, microsomal protein yield 35 mg/g liver",2.73 μmol/h/g tissue
same,In vivo catalytic efficiency,[10]; [17],0.0827 ml/h/g tissue
same,"catalytic efficiency, fold higher than for formation of 3′-hydroxymyristicin",[10]; male rat liver microsomes,approximately sevenfold
same,Vmax,[11]; [15],0.93 ± 0.13 nmol min^−1 (mg microsomal or S9 protein)^−1
same,In vitro catalytic efficiency,[11]; [16],7.881 μl min^−1 (mg microsomal or S9 protein)^−1
same,"Scaled Vmax, in vivo","[11]; from myristicin, microsomal protein yield 32 mg/g liver",1.786 μmol/h/g tissue
same,In vivo catalytic efficiency,[11]; [17],0.0151 ml/h/g tissue
same,"metabolite in rat urine, percentage of the total dose",rat urine,67 % of the total dose
